# Data: US20220089575A1, “FARNESOID X RECEPTOR AGONISTS AND USES THEREOF” (Metacrine, Inc., priority 2017, published 2022)
# Biological target: T1, hFXR (Homo sapiens, UniProt Q96RI1)
# T1 construct: expressed in transfected cells; host or cells: CV-1 cells
# T1 sequence (Q96RI1 1-486): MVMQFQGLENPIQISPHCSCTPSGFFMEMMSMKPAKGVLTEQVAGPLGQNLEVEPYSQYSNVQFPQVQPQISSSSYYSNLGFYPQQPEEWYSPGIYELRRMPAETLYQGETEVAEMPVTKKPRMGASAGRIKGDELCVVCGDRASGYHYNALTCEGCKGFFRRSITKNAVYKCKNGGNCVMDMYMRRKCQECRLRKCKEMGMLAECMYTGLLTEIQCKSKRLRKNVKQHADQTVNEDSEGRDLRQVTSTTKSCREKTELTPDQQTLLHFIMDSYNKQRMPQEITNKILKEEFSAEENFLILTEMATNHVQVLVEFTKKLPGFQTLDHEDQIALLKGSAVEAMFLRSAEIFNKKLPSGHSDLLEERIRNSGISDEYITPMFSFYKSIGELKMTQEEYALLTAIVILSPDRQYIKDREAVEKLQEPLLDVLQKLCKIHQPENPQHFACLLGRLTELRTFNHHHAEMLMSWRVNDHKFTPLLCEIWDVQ
# T1 sequence (P19793 1-462 partner): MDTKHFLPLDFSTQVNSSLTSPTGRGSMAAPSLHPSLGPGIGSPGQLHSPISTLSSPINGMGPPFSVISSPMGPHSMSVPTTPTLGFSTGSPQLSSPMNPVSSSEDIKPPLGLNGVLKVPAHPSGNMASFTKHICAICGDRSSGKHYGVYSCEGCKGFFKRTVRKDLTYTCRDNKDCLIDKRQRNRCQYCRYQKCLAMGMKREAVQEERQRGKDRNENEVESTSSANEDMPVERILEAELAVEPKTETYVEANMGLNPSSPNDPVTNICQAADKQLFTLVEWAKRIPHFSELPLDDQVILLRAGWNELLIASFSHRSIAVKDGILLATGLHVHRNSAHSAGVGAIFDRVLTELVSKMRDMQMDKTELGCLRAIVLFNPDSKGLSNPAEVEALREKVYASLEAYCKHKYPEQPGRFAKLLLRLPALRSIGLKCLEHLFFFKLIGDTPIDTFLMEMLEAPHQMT
# Assay: In Vitro FXR Assay (TK): TK-ECRE-luc reporter in transfected CV-1 cells
# Assay type: cell-based
# Details: 18 hrs, luminescence, maximum efficacy of <25% of the Fexarmine control classified as '+'
# How it was run: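 Transiently transfected monkey CV-1 cells (hFXR, hRXR, TK-ECRE-luciferase, YFP control plasmid), held in stripped-serum DMEM, received compound dilutions from DMSO for 18 h at 37 °C. Activity was taken from luminescence of the cell lysates.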
row,Compound,EC50 [nM]
1,"CCCOC(=O)[C@H]1CC[C@H](C(=O)N(C[C@H]2CC[C@H](c3ccc(OC)c(C)n3)CC2)c2cc(-c3cnn(C4CC4)c3)ccn2)CC1 [Compound 22.06, trans-Propyl 4-((4-(1-cyclopropyl-1H-pyrazol-4-yl)pyridin-2-yl)((trans-4-(5-methoxy-6-methylpyridin-2-yl)cyclohexyl)methyl)carbamoyl) cyclohexanecarboxylate]",250 to 1000
2,"COc1ccc([C@H]2CC[C@H](CN(c3cccc(-c4cnc(C5CC5)s4)c3)C(=O)[C@H]3CC[C@H](NC(=O)COCCCO)CC3)CC2)cc1C [Compound 32.03, trans-N-(3-(2-Cyclopropylthiazol-5-yl)phenyl)-4-(2-(3-hydroxypropoxy)acetamido)-N-((trans-4-(4-methoxy-3-methylphenyl)cyclohexyl)methyl)cyclohexanecarboxamide]",≤ 250
3,"COc1ccc([C@H]2CC[C@H](CN(c3cc(-c4coc(C5CC5)n4)ccn3)C(=O)[C@H]3CC[C@H](OC(=O)N[C@@H]4CCCN(C)C4)CC3)CC2)nc1C [Compound 6.80, trans-4-((4-(2-Cyclopropyloxazol-4-yl)pyridin-2-yl)((trans-4-(5-methoxy-6-methylpyridin-2-yl)cyclohexyl)methyl)carbamoyl)cyclohexyl ((R)-1-methylpiperidin-3-yl)carbamate]",≤ 250
4,"COC(=O)N[C@H]1CC[C@H](C(=O)N(C[C@H]2CC[C@H](c3ccc(OC)c(C)c3)CC2)c2cccc(-c3cnc(OC)s3)c2)CC1 [Compound 25.05, Methyl (trans-4-(((trans-4-(4-methoxy-3-methylphenyl)cyclohexyl)methyl)(3-(2-methoxythiazol-5-yl)phenyl)carbamoyl)cyclohexyl) carbamate]",≤ 250
5,"COc1ncc([C@H]2CC[C@H](CN(c3cccc(-c4cnn(C5CC5)c4)c3)C(=O)[C@H]3CC[C@H](OC(=O)NCCO)CC3)CC2)cc1Cl [Compound 6.23, trans-4-(((trans-4-(5-Chloro-6-methoxypyridin-3-yl)cyclohexyl)methyl) (3-(1-cyclopropyl-1H-pyrazol-4-yl)phenyl)carbamoyl)cyclohexyl (2-hydroxyethyl)carbamate]",≤ 250
6,"COC(=O)N[C@H]1CC[C@H](C(=O)N(C[C@H]2CC[C@H](c3ccc(OC)c(C)n3)CC2)c2cc(-c3coc(C4CC4)n3)ccn2)CC1 [Compound 26.21, Methyl (trans-4-((4-(2-cyclopropyloxazol-4-yl)pyridine-2-yl)((trans-4-(5-methoxy-6-methylpyridin-2-yl)cyclohexyl)methyl)carbamoyl)cyclohexyl)carbamate]",≤ 250
7,"COc1ccc([C@H]2CC[C@H](CN(c3cc(-c4cnc(C5CC5)s4)ccn3)C(=O)[C@H]3CC[C@H](CC(=O)O)CC3)CC2)cc1C#N [Compound 20.05, 2-(trans-4-(((trans-4-(3-Cyano-4-methoxyphenyl)cyclohexyl)methyl)(4-(2-cyclopropylthiazol-5-yl)pyridin-2-yl)carbamoyl)cyclohexyl)acetic acid]",≤ 250
8,"CCNC(=O)O[C@H]1CC[C@H](C(=O)N(C[C@H]2CC[C@H](c3ccc(OC)c(C)n3)CC2)c2cc(-c3cnn(C(C)C)c3)ccn2)CC1 [Compound 5.25, trans-4-((4-(1-Isopropyl-1H-pyrazol-4-yl)pyridin-2-yl)((trans-4-(5-methoxy-6-methylpyridin-2-yl)cyclohexyl)methyl)carbamoyl)cyclohexyl ethylcarbamate]",≤ 250

# Second part, the compound after the results:
row,EC50 [nM],Compound
1,≤ 250,"COc1ccc([C@H]2CC[C@H](CN(c3cccc(-c4cnn(C5CC5)c4)c3)C(=O)[C@H]3CC[C@H](OC(=O)NCCCCCN(C)C)CC3)CC2)cc1C [Compound 4.21, trans-4-((3-(1-Cyclopropyl-1H-pyrazol-4-yl)phenyl)((trans-4-(4-methoxy-3-methylphenyl)cyclohexyl)methyl)carbamoyl)cyclohexyl (5-(dimethylamino)pentyl)carbamate]"
2,≤ 250,"COc1ccc([C@H]2CC[C@H](CN(c3cc(-c4cnc(C5CC5)s4)ccn3)C(=O)[C@H]3CC[C@H](OC(=O)NCCO)CC3)CC2)cc1C [Compound 6.02, trans-4-((4-(2-Cyclopropylthiazol-5-yl)pyridin-2-yl)((trans-4-(4-methoxy-3-methylphenyl)cyclohexyl)methyl)carbamoyl)cyclohexyl (2-hydroxyethyl) carbamate]"
3,≤ 250,"COc1ccc([C@H]2CC[C@H](CN(c3cc(-c4coc(C5CC5)n4)ccn3)C(=O)[C@H]3CC[C@H](C(=O)OC)CC3)CC2)nc1C [Compound 18.23, trans-Methyl 4-((4-(2-cyclopropyloxazol-4-yl)pyridin-2-yl) ((trans-4-(5-methoxy-6-methylpyridin-2-yl)cyclohexyl)methyl)carbamoyl) cyclohexanecarboxylate]"
4,≤ 250,"CN(C)c1ccc([C@H]2CC[C@H](CN(c3cccc(-c4cnc(C5CC5)s4)c3)C(=O)[C@H]3CC[C@H](OC(=O)NCCO)CC3)CC2)cn1 [Compound 6.01, 4-((3-(2-Cyclopropylthiazol-5-yl)phenyl) ((trans-4-(6-(dimethylamino)pyridin-3-yl)cyclohexyl)methyl)carbamoyl) cyclohexyl (2-hydroxyethyl)trans-carbamate]"
5,≤ 250,"CNC(=O)O[C@H]1CC[C@H](C(=O)N(C[C@H]2CC[C@H](c3cnc(OC)c(Cl)c3)CC2)c2cccc(-c3cnn(C4CC4)c3)c2)CC1 [Compound 5.11, trans-4-(((trans-4-(5-Chloro-6-methoxypyridin-3-yl)cyclohexyl)methyl)(3-(1-cyclopropyl-1H-pyrazol-4-yl)phenyl)carbamoyl)cyclohexyl methylcarbamate]"
6,≤ 250,"CNC(=O)O[C@H]1CC[C@H](C(=O)N(C[C@H]2CC[C@H](c3ccc(OC)c(C)n3)CC2)c2cccc(-c3cnn(C(C)(C)C)c3)c2)CC1 [Compound 5.20, trans-4-((3-(1-(tert-Butyl)-1H-pyrazol-4-yl)phenyl)((trans-4-(5-methoxy-6-methylpyridin-2-yl)cyclohexyl)methyl)carbamoyl)cyclohexyl methylcarbamate]"
7,≤ 250,"COc1ccc([C@H]2CC[C@H](CN(c3cccc(-c4cnn(C5CC5)c4)c3)C(=O)[C@H]3CC[C@H](CC(=O)O)CC3)CC2)cc1C#N [Compound 20.11, 2-(trans-4-(((trans-4-(3-Cyano-4-methoxyphenyl)cyclohexyl)methyl)(3-(1-cyclopropyl-1H-pyrazol-4-yl)phenyl)carbamoyl)cyclohexyl)acetic acid]"
8,≤ 250,"COc1ccc([C@H]2CC[C@H](CN(c3cc(-c4coc(C5CC5)n4)ccn3)C(=O)[C@H]3CC[C@H](OC(=O)N4CCOC(C)C4)CC3)CC2)nc1C (stereo partly drawn) [Compound 7.107, trans-4-((4-(2-Cyclopropyloxazol-4-yl)pyridin-2-yl)((trans-4-(5-methoxy-6-methylpyridin-2-yl)cyclohexyl)methyl)carbamoyl)cyclohexyl 2-methylmorpholine-4-carboxylate]"
9,≤ 250,"COc1ccc([C@H]2CC[C@H](CN(c3cccc(-c4cnc(C5CC5)s4)c3)C(=O)[C@H]3CC[C@H](C(=O)O)CC3)CC2)cc1C [Compound 17, trans-4-((3-(2-Cyclopropylthiazol-5-yl)phenyl)((trans-4-(4-methoxy-3-methylphenyl)cyclohexyl)methyl)carbamoyl)cyclohexanecarboxylic acid]"
